Laboratory results reported in patent publication US20110212968A1, “PHENETHYLAMIDE DERIVATIVES AND THEIR HETEROCYCLIC ANALOGUES” (priority 2008, published 2011).

Key:
[1] = molecular target: T1, human orexin-1 receptor (Homo sapiens, UniProt O43613); test: Intracellular calcium measurement (FLIPR Tetra), orexin receptor antagonistic activity, OX1; type: cell-based; details: CHO cells expressing human orexin-1 receptor, 3 nM orexin-A
T1 construct: expressed in transfected cells; host or cells: CHO (Chinese hamster ovary) cells, kept under G418 selection
T1 sequence (O43613 1-425): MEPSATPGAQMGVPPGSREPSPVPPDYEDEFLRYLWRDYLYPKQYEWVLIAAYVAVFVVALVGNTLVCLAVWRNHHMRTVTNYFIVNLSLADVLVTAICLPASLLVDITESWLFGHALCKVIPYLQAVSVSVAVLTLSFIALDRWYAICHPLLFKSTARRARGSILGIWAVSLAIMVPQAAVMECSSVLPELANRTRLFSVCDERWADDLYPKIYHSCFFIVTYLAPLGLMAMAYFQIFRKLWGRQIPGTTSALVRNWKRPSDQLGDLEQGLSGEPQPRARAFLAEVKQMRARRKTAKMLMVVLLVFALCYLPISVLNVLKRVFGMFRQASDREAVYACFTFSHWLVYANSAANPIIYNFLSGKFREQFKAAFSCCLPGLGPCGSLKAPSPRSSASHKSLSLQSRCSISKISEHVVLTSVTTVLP
Summary of the method: (§1)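 Recombinant CHO cells expressing human OX1 or OX2, loaded with fluo-4 AM plus probenecid, were preincubated with antagonist 10 min, then stimulated with 3 nM human orexin-A. Peak fluorescence was compared with vehicle; IC50 derived, sometimes normalized to an on-plate reference compound; two pipetting/cell-splitting conditions were used.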

[2] = molecular target: T2, human orexin-2 receptor (Homo sapiens, UniProt O43614); test: Intracellular calcium measurement (FLIPR Tetra), orexin receptor antagonistic activity, OX2; type: cell-based; details: CHO cells expressing human orexin-2 receptor, 3 nM orexin-A
T2 construct: expressed in transfected cells; host or cells: CHO (Chinese hamster ovary) cells, kept under G418 selection
T2 sequence (O43614 1-444): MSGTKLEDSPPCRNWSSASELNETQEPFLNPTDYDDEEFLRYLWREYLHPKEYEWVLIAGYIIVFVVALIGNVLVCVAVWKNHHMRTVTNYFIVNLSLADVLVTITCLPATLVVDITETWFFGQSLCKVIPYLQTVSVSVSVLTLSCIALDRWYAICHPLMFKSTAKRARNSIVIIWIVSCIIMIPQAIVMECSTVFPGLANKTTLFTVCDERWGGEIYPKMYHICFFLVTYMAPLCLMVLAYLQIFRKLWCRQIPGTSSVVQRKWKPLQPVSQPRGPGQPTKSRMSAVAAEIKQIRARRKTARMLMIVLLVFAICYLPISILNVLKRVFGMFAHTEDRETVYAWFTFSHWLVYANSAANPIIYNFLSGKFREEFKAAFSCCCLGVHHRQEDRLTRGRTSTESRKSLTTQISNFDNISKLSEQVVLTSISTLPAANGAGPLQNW
Summary of the method: as §1

[3] = conditions B, normalized (*) using IC50 of on-plate reference compound

`Cc1ccc(-c2sc(N(C)C)nc2C(=O)N(CCc2nc3cc(C)c(C)cc3[nH]2)CC2CC2)cc1C` [Example 377, 2-Dimethylamino-5-(3,4-dimethyl-phenyl)-thiazole-4-carboxylic acid cyclopropylmethyl-[2-(5,6-dimethyl-1H-benzoimidazol-2-yl)-ethyl]-amide] was tested, and the IC50 [1, 3] was 114 nM and the IC50 [2, 3] was 261 nM.
`Cc1cccc(-c2sc(N)nc2C(=O)N(CCc2c[nH]c3c(C)cccc23)CC2CC2)c1` [Example 230, 2-Amino-5-m-tolyl-thiazole-4-carboxylic acid cyclopropylmethyl-[2-(7-methyl-1H-indol-3-yl)-ethyl]-amide] showed an IC50 ([1]; conditions B) of 9 nM and an IC50 ([2]; conditions B) of 18 nM.
Work on `COc1ccc(CCN(CC2CC2)C(=O)c2nc(N)sc2-c2cccc(C)c2)cc1OC(F)F` [Example 165, 2-Amino-5-m-tolyl-thiazole-4-carboxylic acid cyclopropylmethyl-[2-(3-difluoromethoxy-4-methoxy-phenyl)-ethyl]-amide] yielded an IC50 [1, 3] of 35 nM and an IC50 [2, 3] of 18 nM.
`COC(=O)CN(CCc1c[nH]c2ccc(F)cc12)C(=O)c1nccnc1-c1ccccc1` [Example 286, [[2-(5-Fluoro-1H-indol-3-yl)-ethyl]-(3-phenyl-pyrazine-2-carbonyl)-amino]-acetic acid methyl ester] gave an IC50 [1, 3] of 2730 nM and an IC50 [2, 3] of 322 nM.
Molecule `COc1ccc(-c2cccnc2C(=O)N(CCc2cn(C)c3ccccc23)CC2CC2)cn1` [Example 352, 6′-Methoxy-[3,3′]bipyridinyl-2-carboxylic acid cyclopropylmethyl-[2-(1-methyl-1H-indol-3-yl)-ethyl]-amide] has an IC50 [1, 3] of 20 nM and an IC50 [2, 3] of 37 nM.
For `CCN(CCc1c[nH]c2ccccc12)C(=O)c1cncnc1-c1cccc(OC)c1` [Example 541, 4-(3-Methoxy-phenyl)-pyrimidine-5-carboxylic acid ethyl-[2-(1H-indol-3-yl)-ethyl]-amide], the IC50 [1, 3] was 2930 nM and the IC50 [2, 3] was 151 nM.
`Cc1nc(C(=O)N(CCc2c[nH]c3ccc(F)cc23)CC2CC2)c(-c2cnc3ccccc3c2)s1` [Example 428, 2-Methyl-5-quinolin-3-yl-thiazole-4-carboxylic acid cyclopropylmethyl-[2-(5-fluoro-1H-indol-3-yl)-ethyl]-amide] was tested, and the IC50 [1, 3] was 83 nM and the IC50 [2, 3] was 18 nM.
With `COc1nc(C(=O)N(CCc2c[nH]c3ccc(F)cc23)CC2CC2)c(-c2cccc(C)c2)s1` [Example 275, 2-Methoxy-5-m-tolyl-thiazole-4-carboxylic acid cyclopropylmethyl-[2-(5-fluoro-1H-indol-3-yl)-ethyl]-amide] the IC50 [1, 3] was 201 nM and the IC50 [2, 3] was 70 nM.
Molecule `Cc1ccc(-c2nccnc2C(=O)N(CCc2cn(C)c3ccccc23)CC2CC2)cc1C` [Example 330, 3-(3,4-Dimethyl-phenyl)-pyrazine-2-carboxylic acid cyclopropylmethyl-[2-(1-methyl-1H-indol-3-yl)-ethyl]-amide] has an IC50 [1, 3] of 18 nM and an IC50 [2, 3] of 8 nM.
Work on `Cc1cccc(-c2sc(N)nc2C(=O)N(CCc2ccc3c(c2)OC(F)(F)O3)CC2CC2)c1` [Example 157, 2-Amino-5-m-tolyl-thiazole-4-carboxylic acid cyclopropylmethyl-[2-(2,2-difluoro-benzo[1,3]dioxol-5-yl)-ethyl]-amide] yielded an IC50 ([1]; conditions B) of 8510 nM and an IC50 ([2]; conditions B) of 745 nM.
In the case of `COc1ccc(C(O)CN(CC2CC2)C(=O)c2nc(Br)sc2-c2cccc(C)c2)cc1OC` (stereo not shown) [Example 56, 2-Bromo-5-m-tolyl-thiazole-4-carboxylic acid cyclopropylmethyl-[2-(3,4-dimethoxy-phenyl)-2-hydroxy-ethyl]-amide], the IC50 ([1]; conditions A) is reported as 697 nM and the IC50 ([2]; conditions A) is reported as 299 nM.
`COc1nc(C(=O)N(CC2CC2)CC(O)c2ccc(OC)c(OC)c2)c(-c2cccc(C)c2)s1` (stereo not shown) [Example 78, 2-Methoxy-5-m-tolyl-thiazole-4-carboxylic acid cyclopropylmethyl-[2-(3,4-dimethoxy-phenyl)-2-hydroxy-ethyl]-amide] was tested, and the IC50 ([1]; conditions A) was 1120 nM and the IC50 ([2]; conditions A) was 141 nM.
With `COc1ccc(CCN(CC2CC2)C(=O)c2ncccc2-c2cccc(C)c2)cc1OC` [Example 390, 3-m-Tolyl-pyridine-2-carboxylic acid cyclopropylmethyl-[2-(3,4-dimethoxy-phenyl)-ethyl]-amide] the IC50 ([1]; conditions B) was 182 nM and the IC50 ([2]; conditions B) was 4 nM.
In the case of `COc1ccc(CCN(C(=O)c2nc(N)sc2-c2cccc(C)c2)C2CC2)cc1OC` [Example 122, 2-Amino-5-m-tolyl-thiazole-4-carboxylic acid cyclopropyl-[2-(3,4-dimethoxy-phenyl)-ethyl]-amide], the IC50 ([1]; conditions B) is reported as 15 nM and the IC50 ([2]; conditions B) is reported as 2 nM.
For `Cc1cccc(-c2sc(N)nc2C(=O)N(CCc2csc(N)n2)CC2CC2)c1` [Example 177, 2-Amino-5-m-tolyl-thiazole-4-carboxylic acid [2-(2-amino-thiazol-4-yl)-ethyl]-cyclopropylmethyl-amide], the IC50 ([1]; conditions B) was > 10000 nM and the IC50 ([2]; conditions B) was 954 nM.
With `Cc1cccc(-c2sc(N)nc2C(=O)N(CCc2nc3ccc(Cl)cc3[nH]2)CC2CC2)c1` [Example 220, 2-Amino-5-m-tolyl-thiazole-4-carboxylic acid [2-(6-chloro-1H-benzoimidazol-2-yl)-ethyl]-cyclopropylmethyl-amide] the IC50 ([1]; conditions B) was 139 nM and the IC50 ([2]; conditions B) was 31 nM.
For `COc1ccc(-c2sc(C)nc2C(=O)N(CCc2cn(C)c3ccccc23)CC2CC2)cn1` [Example 341, 5-(6-Methoxy-pyridin-3-yl)-2-methyl-thiazole-4-carboxylic acid cyclopropylmethyl-[2-(1-methyl-1H-indol-3-yl)-ethyl]-amide], the IC50 [1, 3] was 18 nM and the IC50 [2, 3] was 36 nM.
Work on `COc1ccc(CCN(CC2CC2)C(=O)c2cccnc2-c2ccc(C)cc2)cc1OC` [Example 395, N-Cyclopropylmethyl-N-[2-(3,4-dimethoxy-phenyl)-ethyl]-2-p-tolyl-nicotinamide] yielded an IC50 ([1]; conditions B) of 286 nM and an IC50 ([2]; conditions B) of 10 nM.
For `CCCN(CCc1c[nH]c2ccc(F)cc12)C(=O)c1ncccc1-c1ccc(OC)nc1` [Example 311], the IC50 [1, 3] was 147 nM and the IC50 [2, 3] was 16 nM.
`COCCN(CCc1ccc(OC)c(OC)c1)C(=O)c1nc(C)sc1-c1ccc(C)c(C)c1` [Example 129, 5-(3,4-Dimethyl-phenyl)-2-methyl-thiazole-4-carboxylic acid [2-(3,4-dimethoxy-phenyl)-ethyl]-(2-methoxy-ethyl)-amide] gave an IC50 ([1]; conditions B) of 40 nM and an IC50 ([2]; conditions B) of 5 nM.
`CCc1ccc(-c2sc(C)nc2C(=O)N(CCc2ccc(OC)c(OC)c2)CC2CC2)cc1` [Example 20, 5-(4-Ethyl-phenyl)-2-methyl-thiazole-4-carboxylic acid cyclopropylmethyl-[2-(3,4-dimethoxy-phenyl)-ethyl]-amide] was tested, and the IC50 ([1]; conditions A) was 2130 nM and the IC50 ([2]; conditions A) was 15 nM.
Molecule `COc1ccc2nc(CCN(CC3CC3)C(=O)c3ncccc3-c3ccc(OC)nc3)[nH]c2c1` [Example 371, 6′-Methoxy-[3,3′]bipyridinyl-2-carboxylic acid cyclopropylmethyl-[2-(6-methoxy-1H-benzoimidazol-2-yl)-ethyl]-amide] has an IC50 [1, 3] of 1860 nM and an IC50 [2, 3] of 89 nM.
Molecule `Cc1cccc(-c2sc(N)nc2C(=O)N(CCn2ccc3ccccc32)CC2CC2)c1` [Example 221, 2-Amino-5-m-tolyl-thiazole-4-carboxylic acid cyclopropylmethyl-(2-indol-1-yl-ethyl)-amide] has an IC50 ([1]; conditions B) of 243 nM and an IC50 ([2]; conditions B) of 201 nM.
In the case of `CCCN(CCc1c[nH]c2ccc(F)cc12)C(=O)c1nccnc1-c1ccccc1` [Example 283, 3-Phenyl-pyrazine-2-carboxylic acid [2-(5-fluoro-1H-indol-3-yl)-ethyl]-propyl-amide], the IC50 [1, 3] is reported as 192 nM and the IC50 [2, 3] is reported as 16 nM.
With `Cc1ccc(-c2nccnc2C(=O)N(CCN)CCc2c[nH]c3ccc(F)cc23)cc1C` [Example 434, 3-(3,4-Dimethyl-phenyl)-pyrazine-2-carboxylic acid (2-amino-ethyl)-[2-(5-fluoro-1H-indol-3-yl)-ethyl]amide] the IC50 [1, 3] was > 5420 nM and the IC50 [2, 3] was 816 nM.
`COc1ccc(CCN(CC2CC2)C(=O)c2nc(C)sc2-c2cccc(C#N)c2)cc1OC` [Example 19, 5-(3-Cyano-phenyl)-2-methyl-thiazole-4-carboxylic acid cyclopropylmethyl-[2-(3,4-dimethoxy-phenyl)-ethyl]-amide] was tested, and the IC50 ([1]; conditions A) was 2200 nM and the IC50 ([2]; conditions A) was 40 nM.
